Experimental data: US20250099420A1, “SMALL MOLECULE MODULATORS OF GPR139 COMPLEX” (University of Florida Research Foundation, Incorporated, priority 2022, published 2025)
pEC50: −log10 of the molar value.

Key:
[1] = system: parental HEK cells; test: HEK parental Antagonist Counterscreen Assay (non-transfected cells, acetylcholine control); format: cell-based; conditions: for pEC50: Homo sapiens, HEK293, acetylcholine as control, scientific notation, molarity
[2] = biological target: T1, GPR139 (Homo sapiens, UniProt Q6DWJ6); test: GPR139 Antagonist titration assay (calcium detection, HEK-GPR139 cells, vs EC80 of S-JNJ-63533054); conditions: for GPR139 Antagonist Activity Averaged Max % Response (±St. Dev.): activity relative to known control; for GPR139 Antagonist Activity Lipophilic Efficiency (logD): based on logD; for GPR139 Antagonist Activity Lipophilic Efficiency (logP): based on logP; for GPR139 Antagonist Activity Hill Slope: fitted dose-response curve
T1 sequence (Q6DWJ6 1-353): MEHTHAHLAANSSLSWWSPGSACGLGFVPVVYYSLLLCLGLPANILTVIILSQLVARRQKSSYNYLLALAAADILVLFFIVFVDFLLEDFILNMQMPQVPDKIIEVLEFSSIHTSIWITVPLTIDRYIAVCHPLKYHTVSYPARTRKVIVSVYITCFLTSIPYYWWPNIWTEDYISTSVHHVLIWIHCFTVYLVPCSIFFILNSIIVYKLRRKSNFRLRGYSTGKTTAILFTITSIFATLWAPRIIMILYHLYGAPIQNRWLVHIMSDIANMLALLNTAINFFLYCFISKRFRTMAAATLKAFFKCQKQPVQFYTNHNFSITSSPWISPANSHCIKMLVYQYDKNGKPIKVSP

[3] = biological target: T1, GPR139; test: GPR139 Agonist titration / agonist counterscreen assay (calcium detection, HEK-GPR139 cells); format: cell-based; design: expressed in transfected cells; host or cells: HEK Aequorin cells, Maxcyte transient transfection; conditions: for Averaged Max % Response (±St. Dev.): activity relative to known control
Description: GPR activity was assessed using a calcium detection assay. […] Negative control samples were treated with DMSO. […] Intracellular calcium was measured using Calcium 5.

[4] = system: parental HEK cells; test: HEK parental Agonist Counterscreen Assay (non-transfected cells); format: cell-based; conditions: for Averaged Max % Response (±St. Dev.): activity relative to known control
Description: The high control for the agonist counterscreen was Forskolin not acetylcholine.

[5] = agonist counterscreen of the antagonists
[6] = agonist counterscreen of the antagonists, scientific notation, molarity, read-out: GRP139 Agonist activity EC50
[7] = GPR139 Agonist Activity, based on logD
[8] = GPR139 Agonist Activity, based on logP
[9] = GPR139 Agonist Activity, fitted dose-response curve
[10] = GPR139 Agonist Activity, ligand efficiency
[11] = GPR139 Agonist Activity, values printed in E-notation without unit, read-out: EC50
[12] = Homo sapiens, HEK293, HEK Agonist Activity section of Table 4 (parental HEK counterscreen)

| pEC50 [2] | GPR139 Antagonist Activity Ligand Efficiency [2] | GPR139 Antagonist Activity Averaged Max % Response (±St. Dev.) [2] [%] | GPR139 Antagonist Activity Lipophilic Efficiency (logD) [2] | GPR139 Antagonist Activity Lipophilic Efficiency (logP) [2] | GPR139 Antagonist Activity Hill Slope [2] | GRP139 Agonist activity Averaged Max % Response (±St. Dev.) [3, 5] | pEC50 [3, 6] | Compound | HEK antagonist activity Averaged Max % Response (±St. Dev.) [1] | pEC50 [1] | other results |
| --- | --- | --- | --- | --- | --- | --- | --- | --- | --- | --- | --- |
| 5.54 | 0.30 | 82.24 ± 3.16 | 2.79 | 2.79 | 1.53 | −2.6E+0 ± 5.18 ^ % | < 4.85 | COc1ccc(OC)c(NC2=C(Cl)C(=O)N(c3ccccc3C)C2=O)c1 [SR-01000228964] | 24.51 ± 4.86% | < 4.85 | – |
| 5.23 | 0.39 | 70.81 ± 7.08 | 2.11 | 2.11 | 1.05 | 25.24 ± 7.47% | < 4.84 | N#CCC(=O)c1ccccc1Oc1ccc(F)cc1 [SR-01000308363] | 14.98 ± 11.31% | < 4.84 | – |
| 5.68 | 0.23 | 82.63 ± 2.69 | 1.36 | 1.36 | 0.63 | 3.98 ± 7.81% | < 4.97 | COc1cc(C(=O)Nc2ccc(N3C(=O)c4ccc(Cl)cc4C3=O)c(C)c2)cc(OC)c1OC [SR-01000419723] | 25.06 ± 17.50% | < 4.97 | – |
| – | 0.31 | 48.35 ± 1.75 | 1.00 | 1.00 | – | 4.88 ± 6.79% | – | CC(=O)N1N=C(c2ccc(C)cc2)CC1c1ccccc1F (centres unmarked) [SR-01000429850] | −3.2E+0 ± 5.20 ^ % | < 4.81 | – |
| 5.15 | 0.25 | 82.91 ± 7.41 | −712.7E−3 | −712.7E−3 | 0.97 | 7.71 ± 3.46% | < 4.96 | O=C(Nn1c(-c2cccc(Cl)c2)nc2ccccc2c1=O)c1cc(Br)ccc1Cl [SR-01000433654] | 23.11 ± 4.71% | < 4.96 | – |
| 6.01 | 0.37 | 82.02 ± 2.67 | 2.55 | 1.57 | 1.59 | 68.19 ± 17.63% | 5.04 | O=c1c(-c2ccc(Cl)cc2)c(C(F)(F)F)oc2cc(O)ccc12 [SR-01000438114] | 104.21 ± 5.67% | 5.38 | GRP139 Agonist activity Hill Slope [3, 5]: 1.01 |

The remaining lines, values behind:

| Compound | pEC50 [2] | GPR139 Antagonist Activity Ligand Efficiency [2] | GPR139 Antagonist Activity Averaged Max % Response (±St. Dev.) [2] [%] | GPR139 Antagonist Activity Lipophilic Efficiency (logD) [2] | GPR139 Antagonist Activity Lipophilic Efficiency (logP) [2] | GPR139 Antagonist Activity Hill Slope [2] | GRP139 Agonist activity Averaged Max % Response (±St. Dev.) [3, 5] | pEC50 [3, 6] | HEK antagonist activity Averaged Max % Response (±St. Dev.) [1] | pEC50 [1] | other results |
| --- | --- | --- | --- | --- | --- | --- | --- | --- | --- | --- | --- |
| CC1=NN(Cc2ccc(Cl)cc2Cl)C(=O)C1 [SR-01000043246] | 5.41 | 0.47 | 80.83 ± 4.99 | 2.61 | 2.61 | 1.01 | 21.98 ± 2.69% | < 4.82 | 6.06 ± 11.65% | < 4.82 | – |
| O=C(CCC(=O)OCc1ccc(Br)cc1)Nc1ccc(F)cc1 [SR-01000259336] | 5.43 | 0.33 | 90.45 ± 2.75 | 1.62 | 1.62 | 1.05 | 6.87 ± 7.17% | < 4.85 | 26.21 ± 5.54% | < 4.85 | – |
| Cc1ccc(Oc2ccc(OCC(=O)N3C(C)CCCC3C)cc2)cc1 (centres unmarked) [SR-01000445554] | < 5.35 | 0.29 | 80.54 ± 5.09 | 0.71 | 0.71 | – | 28.29 ± 7.43% | < 4.87 | 26.51 ± 5.44% | < 4.87 | – |
| CCCc1sc(N2CCN(C(=O)c3ccccc3)CC2)nc1-c1ccccc1 [SR-01000451510] | 5.06 | 0.25 | 57.55 ± 8.35 | −866.9E−3 | −866.9E−3 | 1.89 | −9.5E+0 ± 9.17 ^ % | < 4.93 | 16.06 ± 4.81% | < 4.93 | – |
| O=C(NCCC1CCCCC1)N1c2ccccc2Sc2ccccc21 [SR-01000452455] | 5.44 | 0.32 | 87.35 ± 5.76 | 0.49 | 0.49 | 1.28 | 15.11 ± 5.37% | < 4.90 | 0.92 ± 5.75% | < 4.90 | – |
| CC(C)C1CC(=O)[C@@H]2C[C@@H](CC2C(=O)CC2CCOc3ccccc3C2)C2C=CC(=C2)CCC(=O)[C@@H](Cc2ccccc2)NC1=O (some centres unmarked) [SR-05000709044] | – | – | – | – | – | – | – | – | – | – | Lipophilic Efficiency (logD) ([4]; HEK Agonist Activity): 3.96; Lipophilic Efficiency (logP) ([4]; HEK Agonist Activity): 3.94; Averaged Max % Response (±St. Dev.) ([4]; HEK Agonist Activity): −2.44 ± 4.17%; pEC50 ([4]; HEK Agonist Activity, parental non-transfected HEK cells): < 4.85; Averaged Max % Response (±St. Dev.) ([3]; GPR139 Agonist Activity): 99.08 ± 8.57%; Lipophilic Efficiency (logD) [3, 7]: 6.97; Lipophilic Efficiency (logP) [3, 8]: 6.95; Hill Slope [3, 9]: 0.79; Efficiency Ligand [3, 10]: 0.24; pEC50 [3, 11]: 7.86 |
| Cc1cccc(NC(=S)NNC(=O)CSCc2cccc3ccccc23)c1 [SR-07000002775] | – | – | – | – | – | – | – | – | – | – | Lipophilic Efficiency (logD) ([4]; HEK Agonist Activity section): −0.064; Lipophilic Efficiency (logP) ([4]; HEK Agonist Activity section): −0.064; Averaged Max % Response (±St. Dev.) ([4]; HEK Agonist Activity section): 2.05 ± 12.71%; pEC50 [4, 12]: < 4.85; Averaged Max % Response (±St. Dev.) ([3]; GPR139 Agonist Activity): 88.97 ± 19.06%; Lipophilic Efficiency (logD) [3, 7]: 1.77; Lipophilic Efficiency (logP) [3, 8]: 1.77; Hill Slope [3, 9]: 0.76; Efficiency Ligand [3, 10]: 0.35; pEC50 [3, 11]: 6.69 |
| CC(C)(C)c1cn2cccc(OCc3ccc(Cl)c(Cl)c3)c2n1 [SR-07000004609] | – | – | – | – | – | – | – | – | – | – | Lipophilic Efficiency (logD) ([4]; HEK Agonist Activity section): −0.610; Lipophilic Efficiency (logP) ([4]; HEK Agonist Activity section): −0.614; Averaged Max % Response (±St. Dev.) ([4]; HEK Agonist Activity section): −5.59 ± 4.81%; pEC50 [4, 12]: < 4.85; Efficiency Ligand ([3]; GPR139 Agonist Activity): 0.39; Hill Slope ([3]; GPR139 Agonist Activity): 0.44; Lipophilic Efficiency (logD) ([3]; GPR139 Agonist Activity): 0.98; Lipophilic Efficiency (logP) ([3]; GPR139 Agonist Activity): 0.98; pEC50 ([3]; GPR139 Agonist Activity, HEK-GPR139 cells, read-out: EC50): 6.45; Averaged Max % Response (±St. Dev.) ([3]; GPR139 Agonist Activity): 87.84 ± 4.08% |
